Laboratory results taken from patent publication US20030199494A1, “1,2,3,5-tetrahydrobenzo'c!azepin-4-one derivatives having muscarinic antagonist activity” (priority 2000, published 2003).

How the values were obtained:
Format in all cases: cell-based
M3 receptor [1] = target: T1, M3 receptor (Cavia porcellus, UniProt H0W1Z3); assay: Functional tissue assay, M3 guinea-pig ileum (antagonist pA2); conditions: guinea-pig ileum, isometric contraction; antagonist pA2 per method; mean ± spread (n pts)
T1 construct: Sections (2 cm) are cut from the ileum of the killed guinea-pigs; from tissue; host or cells: guinea-pig ileum
Source text: (§1) Functional Assays of M1, M2 and M3 Receptor Activity
(§2) Initial evaluation of test compounds is by assay of functional tissue responses. This has the advantage that it readily discriminates between agonist partial agonist and antagonist activity
(§3) Sections (2 cm) are cut from the ileum of the killed guinea-pigs, 10 cm from the ileo-caecal junction. One end is attached to a tissue holder/aerator and the other end via a cotton thread to an isometric transducer. The tissue is immersed in gassed normal Ca^2+ Krebs solution at 32±0.5° C. A resting tension of 0.5 g is applied and isometric contractions measured by computer or polygraph.
(§4) Following at least 30 min equilibration to allow twitches or tension to stabilize, cumulative concentration-response curves for the muscarinic agonists are constructed. The concentration is increased in half logarithmic increments after the contraction in the presence of each concentration has plateaued Steady-state contractions at each concentration are measured and the inhibition expressed as a percentage of the baseline twitch height in atria and vas deferens or as the maxi contraction in the ileum. EC50 values for the muscarinic agonists are determined from individual curves as the molar concentration required for 50% inhibition of twitch height or the 50% of maximum contraction (ileum). Geometric mean EC50 values and their 95% confidence limits are calculated.
(§5) A concentration-response curve to the test agonist is established in the absence of antagonist and after achieving the maximum effect, the agonist washed from the bath to restore twitch contractions. Three further concentration-response curves are then obtained in the same manner at approximately 30 min intervals, with the antagonist (Standards—pirenzepine M1, darifenacin M3, methoctramine M2) being introduced to the bath 15 min before each of these subsequent curves.
(§6) Concentration-response curves in the absence and presence of antagonist are measured as described for the agonist studies. The shifts in the concentration-response curves in the presence of antagonist compared with the absence of antagonist are expressed as the dose-ratios (DR) of the EC50 values. pA2 values are then determined from Schild analysis of plots of the mean corrected […] against log molar concentration of antagonist. The slopes of the Schild plots are determined by linear regression and the pA2 values determined from the intercept on the concentration axis (when log(DR−1) is zero). pA2 values are also determined from individual concentrations of antagonist by applying the equations: pA2=log(DR−1) log[B], wherein B is the molar concentration of antagonist.

M3 receptor [2] = assay: as above; conditions: ileum versus atria, log10 units
Source text: as §1, §2, §3, §4, §5, §6

M2 receptor = target: T2, M2 receptor (Cavia porcellus, UniProt H0VRN8); assay: Functional tissue assay, M2 guinea-pig atria (antagonist pA2); conditions: guinea-pig left atria, paced; antagonist pA2 per method; mean ± spread (n pts)
T2 construct: from tissue; host or cells: guinea-pig left atrium
T2 sequence (H0VRN8 1-466): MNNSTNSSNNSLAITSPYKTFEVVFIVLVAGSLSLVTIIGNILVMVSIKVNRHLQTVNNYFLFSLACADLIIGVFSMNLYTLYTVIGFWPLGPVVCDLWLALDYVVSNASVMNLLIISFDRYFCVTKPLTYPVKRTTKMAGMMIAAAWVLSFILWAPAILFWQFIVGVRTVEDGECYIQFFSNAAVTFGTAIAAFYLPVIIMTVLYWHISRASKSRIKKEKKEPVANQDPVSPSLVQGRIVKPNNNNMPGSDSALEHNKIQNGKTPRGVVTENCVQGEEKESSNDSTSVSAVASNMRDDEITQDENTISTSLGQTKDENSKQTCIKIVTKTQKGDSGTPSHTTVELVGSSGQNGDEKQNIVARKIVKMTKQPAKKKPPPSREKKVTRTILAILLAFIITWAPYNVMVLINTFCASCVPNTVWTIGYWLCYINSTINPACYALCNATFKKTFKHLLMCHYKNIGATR
Source text: as §1, §2
Guinea-pigs are killed by a blow to the back of the head and left atrium removed. The atrium is secured to a pari of stainless steel electrodes by means of a cotton thread and immersed in the organ bath containing gassed Krebs solution with normal Ca^2 + at 32±0.50C. Atria are placed at 2 Hz with square-wave pulses of 0.5 ms pulse width. Isometric contractions are recorded by computer or polygraph.
as §4, with “EC50 values for the muscarinic agonists are determined from individual curves as the molar concentration required for 50% inhibition of twitch height or the 50% of maximum contraction (ileum). Geometric mean EC50 values and their 95% confidence limits are calculated.” left out
Concentration-response curves in the absence and presence of antagonist are measured as described for the agonist studies. […]

T1 sequence (H0W1Z3 1-590): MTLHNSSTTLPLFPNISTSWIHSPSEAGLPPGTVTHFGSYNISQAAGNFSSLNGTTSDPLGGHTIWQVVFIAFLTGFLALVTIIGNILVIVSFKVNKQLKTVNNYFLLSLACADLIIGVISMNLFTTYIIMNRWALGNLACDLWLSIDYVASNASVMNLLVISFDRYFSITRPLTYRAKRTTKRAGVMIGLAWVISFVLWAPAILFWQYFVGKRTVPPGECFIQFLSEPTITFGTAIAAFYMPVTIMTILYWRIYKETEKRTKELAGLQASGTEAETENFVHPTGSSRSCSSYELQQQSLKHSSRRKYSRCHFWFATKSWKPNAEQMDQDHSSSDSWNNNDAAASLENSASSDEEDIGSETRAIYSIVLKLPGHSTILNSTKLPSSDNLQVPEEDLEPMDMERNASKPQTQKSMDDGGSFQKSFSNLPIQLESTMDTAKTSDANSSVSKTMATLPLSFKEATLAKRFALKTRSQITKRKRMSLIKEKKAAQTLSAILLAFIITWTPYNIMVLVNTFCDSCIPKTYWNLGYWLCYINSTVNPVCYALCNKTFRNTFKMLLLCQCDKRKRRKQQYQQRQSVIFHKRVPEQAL

| SMILES | M3 (ileum) (M3 receptor [1]) | Log10 selectivity (M3 receptor [2]) | M2 antagonist pA2 (atria) (M2 receptor) |
| --- | --- | --- | --- |
| O=C1CN(CCNCc2ccccc2)Cc2ccccc2[C@]1(O)C1CCC1 (stereo in doubt) [Compound 19, 2-[2-(benzylamino)ethyl]-5-cyclobutyl-5-hydroxy-1,3,4,5-tetrahydrobenzo[c]azepin-4-one] | 6.5 ± 0.4 (3 pts) | 1.6 ± 0.7 | 4.9 ± 0.6 (4 pts) |
| O=C1CN(CCCNCc2ccccc2)Cc2ccccc2[C@]1(O)C1CCC1 (stereo in doubt) [Compound 22, 2-[3-(Benzylamino)propyl]-5-cyclobutyl-5-hydroxy-1,2,3,5-tetrahydrobenzo[c]azepin-4-one] | 6.7 ± 0.4 (4 pts) | 1.5 ± 0.5 | 5.2 ± 0.3 (4 pts) |
